Laboratory results taken from the supplement of paper PMC10307832.

Assays:
Assay in all cases: relative viability (nuclei count vs DMSO), 5 days (fraction); higher = more cells survive
[1] = compound: Cn1nnc2c(C(N)=O)ncn2c1=O [Temozolomide] + O=C(CCCCCCC(=O)Nc1ccccc1)NO [Vorinostat] (partner 1 µM)
Outline: (§1)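 Relative viability equals treated-well nuclei counts divided by vehicle-well nuclei counts. Counts came from 4× images of lung cancer cell lines grown in 1536-well plates for 5 days after pin-tool dosing on the day after seeding. Dosing used one drug alone or a fixed anchor-drug dose plus five library-drug doses (not always all listed) in √10 steps, and values are medians of duplicate plates.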

[2] = compound: Cn1nnc2c(C(N)=O)ncn2c1=O [Temozolomide] + Cc1cc(Nc2cc(N3CCN(C)CC3)nc(Sc3ccc(NC(=O)C4CC4)cc3)n2)n[nH]1 [Tozasertib] (partner 0.1 µM)
Outline: as §1

[3] = compound: C[C@@H](C(=O)N[C@@H](C1CCCCC1)C(=O)N2CCC[C@H]2C(=O)N[C@@H]3[C@@H](CC4=CC=CC=C34)OCC#CC#CCO[C@@H]5CC6=CC=CC=C6[C@@H]5NC(=O)[C@@H]7CCCN7C(=O)[C@H](C8CCCCC8)NC(=O)[C@H](C)NC)NC [AZD5582] + Nc1ncn([C@H]2C[C@H](O)[C@@H](CO)O2)c(=O)n1 [Decitabine] (partner 2 µM)
Outline: as §1

[4] = compound: C[C@@H](C(=O)N[C@@H](C1CCCCC1)C(=O)N2CCC[C@H]2C(=O)N[C@@H]3[C@@H](CC4=CC=CC=C34)OCC#CC#CCO[C@@H]5CC6=CC=CC=C6[C@@H]5NC(=O)[C@@H]7CCCN7C(=O)[C@H](C8CCCCC8)NC(=O)[C@H](C)NC)NC [AZD5582] + C[C@@H](Oc1cc(-c2cnn(C3CCNCC3)c2)cnc1N)c1c(Cl)ccc(F)c1Cl [Crizotinib] (partner 1 µM)
Outline: as §1

Cell Line	relative viability ([1]; first compound 0.2 µM)	relative viability ([1]; first compound 0.6325 µM)	relative viability ([1]; first compound 2 µM)	relative viability ([1]; first compound 6.325 µM)	relative viability ([1]; first compound 20 µM)	relative viability ([2]; first compound 0.2 µM)	relative viability ([2]; first compound 0.6325 µM)	relative viability ([2]; first compound 2 µM)	relative viability ([2]; first compound 6.325 µM)	relative viability ([2]; first compound 20 µM)	relative viability ([3]; first compound 0.001581 µM)	relative viability ([3]; first compound 0.005 µM)	relative viability ([3]; first compound 0.01581 µM)	relative viability ([3]; first compound 0.05 µM)	relative viability ([4]; first compound 0.001581 µM)	relative viability ([4]; first compound 0.005 µM)	relative viability ([4]; first compound 0.01581 µM)	relative viability ([4]; first compound 0.05 µM)
LK-2	0.345	0.296	0.386	0.188	0.237	0.153	0.155	0.154	0.169	0.151	0.257	0.277	0.307	0.326	0.225	0.218	0.218	0.24
LOU-NH91	0.799	0.934	1.03	0.923	0.797	0.548	0.728	0.687	0.641	0.482	0.803	0.835	0.824	0.794	0.713	0.746	0.729	0.741
LU99A	0.501	0.548	0.419	0.388	0.551	0.259	0.262	0.275	0.259	0.303	0.882	1.09	0.829	0.97	0.548	0.685	0.501	0.672
LXF-289	0.782	0.826	0.65	0.712	0.712	0.241	0.208	0.216	0.169	0.186	0.372	0.331	0.391	0.308	0.75	0.788	0.788	0.725
NCI-H23	0.79	0.727	0.716	0.595	0.541	0.4	0.337	0.35	0.381	0.249	0.334	0.293	0.27	0.278	0.328	0.316	0.498	0.299
NCI-H322M	0.93	0.931	1.05	0.899	0.761		0.508	0.484	0.546	0.4	0.762	0.739	0.652	0.737	0.852	0.944	0.636	1.31
NCI-H358	0.558	0.656	0.6	0.647	0.553	0.0983	0.101	0.104	0.106	0.115	0.199	0.241	0.245	0.215	0.505	0.676	0.704	0.455
NCI-H441	0.986	0.885	0.773	0.703	0.691	0.691	0.775	0.785	0.62	0.611	0.211	0.23	0.21	0.225	0.621	0.567	0.62	0.491
NCI-H460	0.67	0.694	0.706	0.709	0.685	0.441	0.418	0.518	0.368	0.339	0.424	0.491	0.466	0.577	0.801	0.998	0.704	0.94
NCI-H520	0.79	0.77	0.753	0.769	0.646	0.474	0.441	0.462	0.428	0.426	0.504	0.515	0.509	0.557	0.743	0.709	0.729	0.773
NCI-H596	0.683	0.652	0.58	0.585	0.689	0.978	1.04	0.89	0.769	1.01	1.02		1.06	0.39	0.902	0.279	1.03	0.1
NCI-H647	0.886	0.705	0.494	0.304	0.153	0.263	0.307	0.412	0.148	0.147	0.426	0.366	0.417	0.331	0.809	0.732	1.02	0.327
NCI-H650	0.522	0.41	0.462	0.299	0.469	0.704	0.771	0.735	0.681	0.804	0.327	0.3	0.321	0.306	0.581	0.393	0.591	0.401
NCI-H661	0.862	0.789	0.849	0.783	0.691	0.351	0.351	0.352	0.362	0.337	0.525	0.571	0.573	0.556	0.902	0.845	1.04	0.892
NCI-H727		1.15	1.31	1.16	1.06	0.54	0.629	0.764	0.591	0.531	0.965	0.856	0.801	0.921	0.762	0.896	0.749	0.721
NCI-H838	0.751	0.727	0.72	0.748	0.739	0.267	0.286	0.309	0.264	0.254	0.451	0.41	0.476	0.396	0.823	0.914	0.746	1.04
NCI-H1355	0.6	0.638	0.638	0.624	0.583	0.583	0.612	0.66	0.548	0.553	0.359	0.317	0.357	0.364	1.02	0.857	0.982	1.05
